Data taken from patent US20070054916A1, “Aryl nitrogen-containing bicyclic compounds and methods of use” (Amgen Inc., priority 2004, published 2007).

Legend:
LCK KD GST (225-509) = LCK KD GST (225-509) (Homo sapiens, UniProt P06239); test: LCK Homogenous Time Resolved Flourescent (HTRF) kinase assay; settings: average IC50 value in the human HTRF assay for the inhibition of the Lck kinase enzyme
[1] = tested on: production of TNF by monocytes activated with bacterial lipopolysaccharide (LPS); test: Lipopolysaccharide-activated monocyte TNF production assay; format: cell-based; settings: Homo sapiens, read-out: IC50 values in the monocyte assay (LPS induced TNF release)
In short: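 Adherent human PBMC-derived monocytes (~70%) in DMEM/2% FCS were pre-incubated 60 min with nine two-fold compound dilutions, then stimulated with E. coli K532 LPS (added as 30 ng/ml solution) for 4 h at 37 °C. Supernatant TNF-α was measured by sandwich ELISA. IC50 was taken from a polynomial fit of TNF versus compound concentration.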

Chain of LCK KD GST (225-509) (P06239 225-509): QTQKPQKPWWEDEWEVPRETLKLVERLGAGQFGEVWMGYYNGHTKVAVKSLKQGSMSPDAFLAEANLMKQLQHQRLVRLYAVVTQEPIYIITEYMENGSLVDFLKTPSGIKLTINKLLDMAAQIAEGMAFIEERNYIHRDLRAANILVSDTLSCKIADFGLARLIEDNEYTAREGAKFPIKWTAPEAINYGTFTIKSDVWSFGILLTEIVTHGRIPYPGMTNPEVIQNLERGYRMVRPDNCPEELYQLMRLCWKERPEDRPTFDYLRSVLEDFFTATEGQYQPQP

Structure (SMILES): Cc1ccc(C(=O)Nc2cc(C(F)(F)F)ccc2N(C)C2CCN(C)C2)cc1-c1ccc2nc(N)ncc2c1 (stereo in doubt) [Example 238, 3-(2-amino-6-quinazolinyl)-4-methyl-N-(2-(methyl((3S)-1-methyl-3-pyrrolidinyl)amino-5-(trifluoromethyl)phenyl)berizamide]
- IC50 (LCK KD GST (225-509)): ≤ 1 µM

Structure (SMILES): Nc1ncc2cc(-c3ccc(C(=O)Nc4cccc(C(F)(F)F)c4)cc3)ccc2n1 [Example 15, 4-(2-amino-6-quinazolinyl)-N-(3-(trifluoromethyl)phenyl)benzamide]
- IC50 (LCK KD GST (225-509)): ≤ 1 µM

Structure (SMILES): CNc1ncc2cc(-c3cc(C(=O)Nc4ccc(F)c(C(F)(F)F)c4)ccc3C)ccc2n1 [Example 16, N-(4-fluoro-3-(trifluoromethyl)phenyl)-4-methyl-3-(2-(methylamino)-6-quinazolinyl)benzamide]
- IC50 [1]: ≤ 25 µM
- IC50 (LCK KD GST (225-509)): ≤ 1 µM

Structure (SMILES): Cc1ccc(C(=O)NC2CC2)cc1-c1ccc2nc(NCCN(C)C)ncc2c1 [Example 44]
- IC50 (LCK KD GST (225-509)): ≤ 25 µM

Structure (SMILES): Cc1ccc(C(=O)NC2CC2)cc1-c1ccc2nc(NC3CCN(C)CC3)ncc2c1 [Example 45, N-cyclopropyl-4-methyl-3-(2-((1-methyl-4-piperidinyl)amino)-6-quinazolinyl) benzamide]
- IC50 (LCK KD GST (225-509)): ≤ 25 µM

Structure (SMILES): Cc1ccc(C(=O)NC2CC2)cc1-c1ccc2nc(NCCN3CCCCC3)ncc2c1 [Example 47, N-cyclopropyl-4-methyl-3-(2-((2-(1-piperidinyl)ethyl)amino)-6-quinazolinyl) benzamide]
- IC50 (LCK KD GST (225-509)): ≤ 1 µM

Structure (SMILES): CN(C)c1cccc2c(S(=O)(=O)Nc3cccc(-c4ccc5nc(N)ncc5c4)c3)cccc12 [Example 55, N-(3-(2-amino-6-quinazolinyl)phenyl)-5-(dimethylamino)-1-naphthalenesulfonamide]
- IC50 [1]: ≤ 25 µM
- IC50 (LCK KD GST (225-509)): ≤ 1 µM

Structure (SMILES): Cc1ccc(C(=O)Nc2cccc(NC(=O)CN3CCOCC3)c2C)cc1-c1ccc2nc(N)ncc2c1 [Example 56, 3-(2-Amino-6-quinazolinyl)-4-methyl-N-(2-methyl-3-((4-morpholinylacetyl)amino)phenyl)benzamide]
- IC50 [1]: ≤ 25 µM
- IC50 (LCK KD GST (225-509)): ≤ 1 µM

Structure (SMILES): Cc1ccc(C(=O)Nc2cc(Cl)ccc2N(C)CCCN(C)C)cc1-c1ccc2nc(N)ncc2c1 [Example 95, 3-(2-amino-6-quinazolinyl)-N-(5-chloro-2-((3-(dimethylamino)propyl)(methyl)amino)phenyl)-4-methylbenzamide]
- IC50 (LCK KD GST (225-509)): ≤ 1 µM

Structure (SMILES): CN(C)CCCN(C)c1ccc(C(F)(F)F)cc1NC(=O)c1cc(-c2ccc3nc(N)ncc3c2)cc2c1OCC2 [Example 96, 5-(2-amino-6-quinazolinyl)-N-(2-((3-(dimethylamino)propyl)(methyl)amino)-5-(trifluoromethyl)phenyl)-2,3-dihydro-1-benzofuran-7-carboxamide]
- IC50 (LCK KD GST (225-509)): ≤ 1 µM

Structure (SMILES): Nc1ncc2cc(-c3cccc(C(=O)Nc4cccc(OC(F)(F)F)c4)c3)ccc2n1 [Example 98, 3-(2-amino-6-quinazolinyl)-N-(3-((trifluoromethyl)oxy)phenyl)benzamide]
- IC50 (LCK KD GST (225-509)): ≤ 1 µM

Structure (SMILES): COc1c(Br)cc(-c2ccc3nc(N)ncc3c2)cc1C(=O)Nc1cc(C(F)(F)F)ccc1N(C)CCCN(C)C [Example 103, 5-(2-amino-6-quinazolinyl)-3-bromo-N-(2-((3-(dimethylamino)propyl)(methyl)amino)-5-(trifluoromethyl)phenyl)-2-(methyloxy)benzamide]
- IC50 (LCK KD GST (225-509)): ≤ 1 µM

Structure (SMILES): COc1c(C(=O)Nc2cccc(C(F)(F)F)c2)cc(-c2ccc3nc(N)ncc3c2)c(OC)c1OC [Example 109, 5-(2-amino-6-quinazolinyl)-2,3,4-tris(methyloxy)-(trifluoromethyl)-N-(3-phenyl)benzamide]
- IC50 [1]: ≤ 25 µM
- IC50 (LCK KD GST (225-509)): ≤ 1 µM

Structure (SMILES): COc1c(C(=O)Nc2cc(C(F)(F)F)ccc2N(C)CCCN(C)C)cc(-c2ccc3nc(N)ncc3c2)c(OC)c1OC [Example 110, 5-(2-amino-6-quinazolinyl)-N-(2-((3-(dimethylamino)propyl)methyl)amino-5-(trifluoromethyl)phenyl)-2,3,4-tris(methyloxy)benzamide]
- IC50 [1]: ≤ 25 µM
- IC50 (LCK KD GST (225-509)): ≤ 1 µM

Structure (SMILES): Cc1ccc(C(=O)NCCN(C)C)cc1-c1ccc2nc(N)ncc2c1 [Example 134, 3-(2-amino-6-quinazolinyl)-N-(2-(dimethylamino)ethyl)-4-methylbenzamide]
- IC50 (LCK KD GST (225-509)): ≤ 25 µM

Structure (SMILES): CNc1ncc2cc(-c3cccc(C(=O)Nc4cccc(OC(F)(F)F)c4)c3C)cnc2n1 [Example 183, 2-methyl-3-(2-(methylamino)pyrido [2,3-d]pyrimidin-6-yl)-N-(3-((trifluoromethyl)oxy)phenyl)benzamide]
- IC50 [1]: ≤ 25 µM
- IC50 (LCK KD GST (225-509)): ≤ 1 µM

Structure (SMILES): Cc1ccc(C(=O)Nc2cc(C(F)(F)F)ccc2CN2CCN(C)CC2)cc1-c1ccc2ncnc(N)c2c1 [Example 383, 3-(4-amino-6-quinazolinyl)-4-methyl-N-(2-((4-methyl-1-piperazinyl)methyl)-5-(trifluoromethyl)phenyl)benzamide]
- IC50 (LCK KD GST (225-509)): ≤ 1 µM

Structure (SMILES): Cc1ccc(C(=O)Nc2cc(C(F)(F)F)ccc2N(C)C)cc1-c1ccc2ncnc(N)c2c1 [Example 385, 3-(4-amino-6-quinazolinyl)-N-(2-(dimethylamino)-5-(trifluoromethyl)phenyl)-4-methylbenzamide]
- IC50 (LCK KD GST (225-509)): ≤ 1 µM

Structure (SMILES): CC1(C)CC(=O)Nc2cc(NC(=O)c3cc(-c4ccc5nc(N)ncc5c4)ccc3F)ccc21 [Example 412]
- IC50 (LCK KD GST (225-509)): ≤ 1 µM

Structure (SMILES): Cc1ccc(NC(=O)c2cccc(C(C)C)c2)cc1-c1ccc2nc(N)ncc2c1 [Example 432, N-(3-(2-aminoquinazolin-6-yl)-4-methylphenyl)-3-isopropylbenzamide]
- IC50 [1]: ≤ 25 µM

Structure (SMILES): Nc1ncc2cc(-c3ccc(F)c(NC(=O)c4cc(C(F)(F)F)ccc4F)c3)ccc2n1 [Example 433, N-(5-(2-aminoquinazolin-6-yl)-2-fluorophenyl)-2-fluoro-5-(trifluoromethyl)benzamide]
- IC50 [1]: ≤ 25 µM

Structure (SMILES): CN1CCN(c2ccc(C(F)(F)F)cc2C(=O)Nc2cc(-c3ccc4nc(N)ncc4c3)ccc2F)CC1 [Example 434, N-(5-(2-aminoquinazolin-6-yl)-2-fluorophenyl)-2-(4-methylpiperazin-1-yl)-5-(trifluoromethyl)benzamide]
- IC50 [1]: ≤ 25 µM

Structure (SMILES): Nc1ncc2cc(-c3cc(NC(=O)c4cccc(C(F)(F)F)c4F)ccc3Cl)ccc2n1 [Example 481, N-(3-(2-amino-6-quinazolinyl)-4-chlorophenyl)-2-fluoro-3-(trifluoromethyl)benzamide]
- IC50 [1]: ≤ 25 µM

Structure (SMILES): Nc1ncc2cc(-c3cc(NC(=O)c4cccc(Cl)c4Cl)ccc3Cl)ccc2n1 [Example 482, N-(3-(2-amino-6-quinazolinyl)-4-chlorophenyl)-2,3-dichlorobenzamide]
- IC50 [1]: ≤ 25 µM

Structure (SMILES): Cc1ccc(NC(=O)c2ccccc2)cc1-c1ccc2nc(NC(=O)c3ccccc3)ncc2c1 [Example 483, N-(6-(2-methyl-5-((phenylcarbonyl)amino)phenyl)-2-quinazolinyl)benzamide]
- IC50 [1]: ≤ 25 µM

Structure (SMILES): Nc1ncc2cc(-c3ccc(F)c(NC(=O)c4ccccc4)c3)ccc2n1 [Example 485, N-(5-(2-amino-6-quinazolinyl)-2-fluorophenyl)benzamide]
- IC50 [1]: ≤ 25 µM

Structure (SMILES): Nc1ncc2cc(-c3ccc(F)c(NC(=O)C4CC4)c3)ccc2n1 [Example 486, N-(5-(2-amino-6-quinazolinyl)-2-fluorophenyl)cyclopropanecarboxamide]
- IC50 [1]: ≤ 25 µM

Structure (SMILES): Nc1ncc2cc(-c3ccc(F)c(NC(=O)c4cccc(Cl)c4Cl)c3)ccc2n1 [Example 487, N-(5-(2-amino-6-quinazolinyl)-2-fluorophenyl)-2,3-dichlorobenzamide]
- IC50 [1]: ≤ 25 µM

Structure (SMILES): CC(C)(C)c1ccc(C(=O)Nc2cc(-c3ccc4nc(N)ncc4c3)ccc2F)cc1 [Example 488, N-(5-(2-amino-6-quinazolinyl)-2-fluorophenyl)-4-(1,1-dimethylethyl)benzamide]
- IC50 [1]: ≤ 25 µM

Structure (SMILES): Nc1ncc2cc(-c3ccc(F)c(NC(=O)c4cc(F)cc(C(F)(F)F)c4)c3)ccc2n1 [Example 489, N-(5-(2-amino-6-quinazolinyl)-2-fluorophenyl)-3-fluoro-5-(trifluoromethyl)benzamide]
- IC50 [1]: ≤ 25 µM

Structure (SMILES): COc1cc(OC)cc(C(=O)Nc2cc(-c3ccc4nc(N)ncc4c3)ccc2F)c1 [Example 490, N-(5-(2-amino-6-quinazolinyl)-2-fluorophenyl)-3,5-bis(methyloxy)benzamide]
- IC50 [1]: ≤ 25 µM

Structure (SMILES): CC(C)c1cccc(C(=O)Nc2cc(-c3ccc4nc(N)ncc4c3)ccc2F)c1 [Example 491, N-(5-(2-amino-6-quinazolinyl)-2-fluorophenyl)-3-(1-methylethyl)benzamide]
- IC50 [1]: ≤ 25 µM

Structure (SMILES): CC(C)c1cccc(C(=O)Nc2cc(-c3ccc4nc(N)ncc4c3)cc(C(F)(F)F)c2)c1 [Example 512, N-(3-(2-amino-6-quinazolinyl)-5-(trifluoromethyl)phenyl)-3-(1-methylethyl)benzamide]
- IC50 (LCK KD GST (225-509)): ≤ 1 µM

Structure (SMILES): Nc1ncnc2ccc(-c3cccc(NC(=O)c4cccc(C(F)(F)F)c4)c3)cc12 [Example 513, N-(3-(4-amino-6-quinazolinyl)phenyl)-3-(trifluoromethyl)benzamide]
- IC50 (LCK KD GST (225-509)): ≤ 1 µM

Structure (SMILES): COc1ccc(Cl)cc1NC(=O)Nc1ccc(-c2ccc3nc(N)ncc3c2)c(C)c1 [Example 520, N-(4-(2-amino-6-quinazolinyl)-3-methylphenyl)-N′-(5-chloro-2-(methyloxy)phenyl)urea]
- IC50 [1]: ≤ 25 µM

Structure (SMILES): Cc1ccc(NC(=O)Nc2cccc(C(F)(F)F)c2)cc1-c1ccc2nc(N)ncc2c1 [Example 524, N-(3-(2-amino-6-quinazolinyl)-4-methylphenyl)-N′-(3-(trifluoromethyl)phenyl)urea]
- IC50 [1]: ≤ 25 µM

Structure (SMILES): Cc1cccc(C)c1-c1ccc2nc(NCCN3CCOCC3)ncc2c1 [Example 534, 6-(2,6-dimethylphenyl)-N-(2-morpholinoethyl)quinazolin-2-amine]
- IC50 [1]: ≤ 25 µM

Structure (SMILES): Cc1cccc(C)c1-c1ccc2nc(N)ncc2c1 [Example 535, 6-(2,6-dimethylphenyl)-2-quinazolinamine]
- IC50 [1]: ≤ 25 µM
